According to patent US20210299079A1, “MONOMETHYL FUMARATE-CARRIER CONJUGATES AND METHODS OF THEIR USE” (Flagship Pioneering Innovations V, Inc., priority 2018, published 2021):

Experiments:
[1] = target: T1, AhR (Homo sapiens, UniProt P35869); test: AhR Activation in Caco-2 Cells Through CYP1A1 mRNA Expression; details: overnight
T1 sequence (P35869 11-848): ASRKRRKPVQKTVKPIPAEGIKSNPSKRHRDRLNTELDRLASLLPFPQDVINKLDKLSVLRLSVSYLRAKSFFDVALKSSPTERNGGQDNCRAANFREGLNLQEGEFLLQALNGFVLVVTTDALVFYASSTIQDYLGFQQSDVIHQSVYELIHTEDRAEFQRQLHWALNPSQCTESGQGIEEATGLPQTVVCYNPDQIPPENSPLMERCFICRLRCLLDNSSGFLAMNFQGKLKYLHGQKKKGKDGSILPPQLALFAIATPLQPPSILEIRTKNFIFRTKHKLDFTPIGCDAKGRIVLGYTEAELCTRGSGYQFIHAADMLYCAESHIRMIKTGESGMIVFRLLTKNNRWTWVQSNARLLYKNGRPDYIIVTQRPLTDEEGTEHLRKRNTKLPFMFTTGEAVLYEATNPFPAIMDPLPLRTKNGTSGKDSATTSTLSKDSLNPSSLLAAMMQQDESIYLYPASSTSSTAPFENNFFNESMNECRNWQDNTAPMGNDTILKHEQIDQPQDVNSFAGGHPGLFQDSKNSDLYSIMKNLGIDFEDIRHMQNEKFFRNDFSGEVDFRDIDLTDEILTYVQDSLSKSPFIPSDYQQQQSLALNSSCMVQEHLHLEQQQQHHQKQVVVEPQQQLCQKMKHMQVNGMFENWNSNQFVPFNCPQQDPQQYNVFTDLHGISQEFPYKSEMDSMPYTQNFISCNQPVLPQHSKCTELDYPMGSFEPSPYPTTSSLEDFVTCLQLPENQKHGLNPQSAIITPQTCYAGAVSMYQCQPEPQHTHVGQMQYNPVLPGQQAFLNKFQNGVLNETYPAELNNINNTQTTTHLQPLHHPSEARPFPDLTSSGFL
Protocol: Caco-2 cells from American Type Culture Collection (ATCC) were plated in a sterile tissue culture treated 96-well plate (ThermoFisher) at 8.0×10^5 cells per well, and grown overnight at 37° C., 5% CO2 in DMEM complete (Gibco) in order to achieve confluence. After the incubation medium was aspirated off of the Caco-2 monolayers, tissues were then washed with 200 μL of warmed PBS solution, and subsequently 190 μL of pre-warmed growth medium was added to each well. Compounds of interest were diluted at a 20× concentration in growth medium containing 2% DMSO, and 10 μL of compound solutions were added to respective wells in triplicate. Compounds where incubated overnight at 37° C., 5% CO2. 2-(1′H-indole-3′-carbonyl)-thiazole-4-carboxylic acid methyl ester (ITE) was used as the positive control for AhR activation at 1 and 100 μM concentrations. At the end of the incubation, medium was aspirated off of the Caco-2 cells, and washed with 100 μL of cold PBS solution. RNA was extracted via the TaqMan™ Gene Expression Cells-to-CT™ Kit (ThermoFisher) according to the manufacturer's protocol. The QuantStudio 6 Flex (Applied Biosciences) was used to analyze mRNA levels of CYP1A1 using GAPDH as the endogenous control. TaqMan™ probe sets for both genes were acquired from ThermoFisher. Samples were run in triplicate and data was analyzed using the QuantStudio software and reported as linear (Table 6) and log 2(ΔΔCT) values. Statistical analysis was performed using a two-tailed t-test comparing CYP1A1 levels in the presence of each individual compound to the vehicle negative control.

[2] = system: MIP-1β; test: Neutrophil Chemokine Production Assay: MIP-1β; assay type: cell-based; details: human neutrophils, 12 h
In short: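 Neutrophils were isolated from human blood by Histopaque-1077 separation and RBC lysis, then plated at 2.0×10^5 cells/well in RPMI complete. Cells were stimulated with LPS (10 μL of a 2 μg/mL solution) for 12 h at 37 °C. Supernatant chemokines were measured by Luminex multiplex, averaging three data points from two donors.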

[3] = system: Caco-2 colonocytes; test: Human Caco-2 Barrier Integrity Assay, Study 1; assay type: cell-based; details: Caco-2, + cytokines (TNFα, IFNγ, IL-1β), 48 hours
Protocol: Caco-2 colonocytes were maintained at 37° C. and 5% CO2 in Dulbecco's Modified Eagle Medium (DMEM) and supplemented with 10% FBS, 1% NEAA, 1% penicillin-streptomycin. At 70-80% confluency, cells were trypsinized and seeded in 0.4 cm^2 transwell collagen I coated membranes with supplemented DMEM in both apical and basolateral compartments. […] After 48 hours, TEER readings were taken again and viability was measured by CellTiter 96® AQueous One Solution Cell Proliferation Assay (Promega).

SMILES: CCC(=O)O [propionate]
- Average CYP1A1 mRNA levels ([1]; Conc. 1000.0 μM): − (− = <2-fold Vehicle)
- Average CYP1A1 mRNA levels ([1]; Conc. 3000.0 μM): − (− = <2-fold Vehicle)
- % MIP-1β (DMSO + LPS = 100%) ([2]; Conc. 500.0 μM): +++ (+++ = <50% Vehicle)
- % MIP-1β (DMSO + LPS = 100%) ([2]; Conc. 1000.0 μM): +++ (+++ = <50% Vehicle)
- % MIP-1β (DMSO + LPS = 100%) ([2]; Conc. 3000.0 μM): +++ (+++ = <50% Vehicle)
- % Change in TEER from DMSO ([3]; 1 mM): + (125% > <150%: +)
- % Change in TEER from DMSO ([3]; 3 mM): ++ (150% > <200%: ++)
